Consider two molecules from paper PMC3306470 (ACS chemical biology, 2012).

A value given as a limit tells only on which side of the number the result lay.

One series deals with ß-lactamase. Nature of the series: ß-Lactamase assay.
Series [1] deals with PARG. Nature of the series: PARG in vitro assay. As to conditions: for PARG inhibition: 0.5 h incubation with 32P-PAR.
Series [2] deals with endogenous PARG in whole cell lysate generated from mouse embryonic fibroblasts (MEFs) (Mus musculus, UniProt O88622). Nature of the series: Processing of 32P-PAR by MEF whole cell lysate. It counts as biochemical. Particulars: 25 μM, MEF lysate 1.5 μg.
Series [3] relates to PARG. As to conditions: cited from earlier work.
The conditions of series [4]: not told; cited from earlier work.
Series [5] has as its system PARG. Nature of the series: PARG in vitro assay under the original salicylanilide conditions. As to conditions: 10 μM; phosphate buffer, 5 min; both in the absence and presence of 0.1% Triton X-100.

endogenous PARG in whole cell lysate generated from mouse embryonic fibroblasts (MEFs), sequence (O88622 whole entry): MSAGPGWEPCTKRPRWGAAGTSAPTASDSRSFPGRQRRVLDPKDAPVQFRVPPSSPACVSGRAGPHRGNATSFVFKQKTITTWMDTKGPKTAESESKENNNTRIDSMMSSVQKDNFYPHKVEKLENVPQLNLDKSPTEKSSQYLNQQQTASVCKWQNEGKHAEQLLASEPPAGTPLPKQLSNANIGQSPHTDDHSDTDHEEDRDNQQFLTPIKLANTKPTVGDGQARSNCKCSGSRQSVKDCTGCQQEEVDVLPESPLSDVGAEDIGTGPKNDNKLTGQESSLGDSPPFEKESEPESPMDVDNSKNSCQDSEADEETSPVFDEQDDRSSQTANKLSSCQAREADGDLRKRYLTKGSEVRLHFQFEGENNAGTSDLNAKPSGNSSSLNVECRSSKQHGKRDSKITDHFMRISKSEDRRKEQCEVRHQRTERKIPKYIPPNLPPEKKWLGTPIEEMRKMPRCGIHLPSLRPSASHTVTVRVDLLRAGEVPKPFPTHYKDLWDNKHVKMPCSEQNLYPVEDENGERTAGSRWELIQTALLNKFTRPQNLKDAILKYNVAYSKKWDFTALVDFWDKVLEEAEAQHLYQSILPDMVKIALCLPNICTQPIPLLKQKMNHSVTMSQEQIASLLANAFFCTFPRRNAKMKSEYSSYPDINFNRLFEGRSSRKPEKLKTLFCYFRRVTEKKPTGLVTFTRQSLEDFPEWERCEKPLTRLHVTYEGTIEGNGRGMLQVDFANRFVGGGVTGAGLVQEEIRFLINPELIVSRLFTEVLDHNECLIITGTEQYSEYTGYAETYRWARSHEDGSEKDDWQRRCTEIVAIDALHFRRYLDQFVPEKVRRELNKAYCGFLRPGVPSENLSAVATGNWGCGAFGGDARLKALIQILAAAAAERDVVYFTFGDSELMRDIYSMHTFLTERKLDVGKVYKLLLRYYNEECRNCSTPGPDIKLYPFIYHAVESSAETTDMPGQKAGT

Take `Nc1c(/N=N/c2ccc(-c3ccc(/N=N/c4cc(S(=O)(=O)O)c5ccccc5c4N)cc3)cc2)cc(S(=O)(=O)O)c2ccccc12` [Congo Red]: in the series with ß-lactamase (50 μM, absence of detergent), the “inhibition of ß-lactamase” value came out at 100%. Also, the “inhibition of ß-lactamase in the presence of detergent” value in the series on ß-lactamase (5-50 μM, 0.1% Triton X-100) is given as under 10%. Besides, the “effect of detergent on inhibition of PARG” value in the series on PARG [1] (compound 50 μM, presence or absence of 0.1% Triton X-100, 2 h) is on record as “complete loss of inhibition”.

The IC50 is the midpoint of a concentration-inhibition curve. `Nc1ncnc2c1ncn2[C@@H]1O[C@H](CO[P@](=O)(O)O[P@@](=O)(O)OC[C@H]2NC[C@H](O)[C@@H]2O)[C@@H](O)[C@H]1O` [ADP-HPD, Adenosine diphosphate (hydroxymethyl)pyrrolidinediol]: the “intact PAR at 60 min” value in series [2] is on record as “approx. 80%”. The “partial inhibition of PARG” value in the series on PARG [3] is “partial inhibition of PARG”. Moreover, the concentration for half-maximal inhibition (IC50) in the series on PARG [3] (read-out: IC50 for PARG inhibition, literature value) was 120 nM. For the same molecule, the cell permeability entry in series [4] is recorded as “lack of cell permeability”. Also, the PARG inhibition result with PARG [1] (0.5 μM) is “partially inhibited”; in the series on PARG [1] (25 μM) it was 67%; in the series on PARG [5], “complete inhibition”. Moreover, in the series on PARG [1] (0.5 – 25 μM, 2 h incubation with 32P-PAR), the “PARG inhibition after prolonged incubation” value was “only minimal PARG inhibition”.
